Reference: patent US20260248894A1, “COMBINATION THERAPY FOR PRETERM INFANTS” (Oak Hill Bio Ltd, priority 2022, published 2026)
Counter-ions that a name gives are not always drawn. Like-named read-outs stand apart in the source and are kept apart here.

Assays:
[1] = molecular target: T1, rhIGF-1/rhIGFBP-3 drug product (Homo sapiens, UniProt P05019+P17936, DEL119-195); assay: In vitro physical compatibility of test medications mixed with rhIGF-1/rhIGFBP-3 (visual observation, OD320, pH, osmolality); type: physicochemical; conditions: for visual observation (and OD320) upon mixing: mixture with rhIGF-1/rhIGFBP-3 drug product
T1 construct: purchased Takeda, Lexington, MA, USA
T1 sequence (P05019 49-118 limits assumed, stated change not applied): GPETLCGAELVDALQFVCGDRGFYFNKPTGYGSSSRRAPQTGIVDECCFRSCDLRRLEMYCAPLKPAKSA
T1 sequence (P17936 28-291, stated change not applied): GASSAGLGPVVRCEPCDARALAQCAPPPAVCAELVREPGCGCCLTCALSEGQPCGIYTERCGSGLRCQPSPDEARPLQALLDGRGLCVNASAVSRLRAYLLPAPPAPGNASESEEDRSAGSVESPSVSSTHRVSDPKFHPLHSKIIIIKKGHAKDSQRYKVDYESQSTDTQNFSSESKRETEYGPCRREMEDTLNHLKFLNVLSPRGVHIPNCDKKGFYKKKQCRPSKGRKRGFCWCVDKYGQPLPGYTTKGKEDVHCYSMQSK

[2] = molecular target: T1, rhIGF-1/rhIGFBP-3 drug product; assay: Small-molecule chemical compatibility: small-molecule content post mixing by RP-HPLC-UV or ion chromatography; type: physicochemical; conditions: post mixing with rhIGF-1/rhIGFBP-3 drug product, last specified time point(s)
[3] = molecular target: T1, rhIGF-1/rhIGFBP-3 drug product; assay: Protein-specific (mass spectrometry-based) analyses of rhIGF-1/rhIGFBP-3 chemical compatibility and the final compatibility decision; type: physicochemical
insulin [4] = conditions: no compatibility data available with insulin
insulin [5] = conditions: cited from earlier work
[6] = mixed with rhIGF-1/rhIGFBP-3 drug product at representative clinical doses, room temperature

Molecule	physical compatibility with rhIGF-1/rhIGFBP-3 ([1]; conditions and doses tested)	Physical compatibility [1, 6]	Chemical compatibility for small-molecule content (RP-HPLC) [2]	other results
NCC[C@H](O)C(=O)N[C@@H]1C[C@H](N)[C@@H](O[C@H]2O[C@H](CN)[C@@H](O)[C@H](O)[C@H]2O)[C@H](O)[C@H]1O[C@H]1O[C@H](CO)[C@@H](O)[C@H](N)[C@H]1O.O=S(=O)(O)O.O=S(=O)(O)O [Amikacin sulfate]	considered incompatible	No	Yes (Chemical incompatibility was considered to be a loss of the small-molecule content of ~10% or more over the defined testing period)	decrease in pH of mixtures compared with controls ([1]; mixture with rhIGF-1/rhIGFBP-3): Mixtures demonstrated a decrease in pH of ~0.6 units
CC1(C)S[C@@H]2[C@H](NC(=O)[C@H](N)c3ccccc3)C(=O)N2[C@H]1C(=O)O [Ampicillin sodium]	considered incompatible	No	Yes (Chemical incompatibility was considered to be a loss of the small-molecule content of ~10% or more over the defined testing period)	pH change post mixing (in words) ([1]; mixture with rhIGF-1/rhIGFBP-3): Observed change in pH of rhIGF-1/rhIGFBP-3
Cn1c(=O)c2c(ncn2C)n(C)c1=O.O=C(O)CC(O)(CC(=O)O)C(=O)O [Caffeine citrate]	–	–	–	Physical compatibility [1]: Yes^a; pH difference of mixed samples compared with the control [1]: demonstrated ~1.0 unit difference compared; physical compatibility with rhIGF-1/rhIGFBP-3 [1]: physical compatibility was established
CC(CCc1ccc(O)cc1)NCCc1ccc(O)c(O)c1 (stereo not shown) [Dobutamine hydrochloride]	considered incompatible	No	Yes (Chemical incompatibility was considered to be a loss of the small-molecule content of ~10% or more over the defined testing period)	visual observation (and OD320) upon mixing [1]: physical compatibility (no precipitation, no; final compatibility decision informed by protein-specific studies / sodium (meta)bisulfite in the formulation [3]: medication is considered incompatible
Cl.NCCc1ccc(O)c(O)c1 [Dopamine hydrochloride]	–	–	–	Physical compatibility [1]: No; pH change post mixing (in words) [1]: A dopamine dose-dependent physical change; physical compatibility with rhIGF-1/rhIGFBP-3 [1]: considered incompatible; effect on rhIGF-1/rhIGFBP-3 drug product in protein-specific analyses [3]: data demonstrated an impact on the rhIGF-
OC(Cn1cncn1)(Cn1cncn1)c1ccc(F)cc1F [Fluconazole]	physical compatibility was established	Yes	Yes (Chemical incompatibility was considered to be a loss of the small-molecule content of ~10% or more over the defined testing period)	expected reaction on the basis of theoretical evaluation and the solution pH (insulin [4]): a reaction is not expected
NS(=O)(=O)c1cc(C(=O)O)c(NCc2ccco2)cc1Cl [Furosemide]	considered incompatible	No	Yes (Chemical incompatibility was considered to be a loss of the small-molecule content of ~10% or more over the defined testing period)	time after mixing to cloudiness / turbidity ([1]; mixture with rhIGF-1/rhIGFBP-3): ≤ 30 min; visual observation (and OD320) upon mixing [1]: Cloudiness observed
C[C@@H](O)[C@H]1C(=O)N2C(C(=O)O)=C(S[C@@H]3CN[C@H](C(=O)N(C)C)C3)[C@H](C)[C@H]12 [Meropenem]	considered incompatible	No	Yes (Chemical incompatibility was considered to be a loss of the small-molecule content of ~10% or more over the defined testing period)	pH change post mixing ([1]; mixture with rhIGF-1/rhIGFBP-3): Observed pH change of ~2.4 post mixing,
Cc1ncc2n1-c1ccc(Cl)cc1C(c1ccccc1F)=NC2 [Midazolam, Midazolam hydrochloride]	–	–	–	Physical compatibility [1]: Yes; physical compatibility with rhIGF-1/rhIGFBP-3 [1]: physical compatibility was established; compatibility with insulin (insulin [5]): established
NC[C@H](O)c1ccc(O)c(O)c1 [Norepinephrine bitartrate]	–	–	–	pH change post mixing (in words) [1]: Only the lowest dose was physically; physical compatibility with rhIGF-1/rhIGFBP-3 [1]: considered incompatible
CC1(C)S[C@@H]2[C@H](NC(=O)Cc3ccccc3)C(=O)N2[C@H]1C(=O)[O-].[K+] [Penicillin G, Penicillin G potassium]	considered incompatible	No	Yes (Chemical incompatibility was considered to be a loss of the small-molecule content of ~10% or more over the defined testing period)	pH shift ([1]; highest penicillin G dose of 125,000 Units/kg/30 min): pH shift (up to 1.3 pH units for the highest
CN[C@H](CC(C)C)C(=O)N[C@H]1C(=O)N[C@@H](CC(N)=O)C(=O)N[C@H]2C(=O)N[C@H]3C(=O)N[C@H](C(=O)N[C@H](C(=O)O)c4cc(O)cc(O)c4-c4cc3ccc4O)[C@H](O)c3ccc(c(Cl)c3)Oc3cc2cc(c3O[C@@H]2O[C@H](CO)[C@@H](O)[C@H](O)[C@H]2O[C@H]2C[C@](C)(N)[C@H](O)[C@H](C)O2)Oc2ccc(cc2Cl)[C@H]1O [Vancomycin hydrochloride]	–	–	–	Physical compatibility [1]: Yes; compatibility with insulin (insulin [5]): established
Gentamicin	–	–	Yes (Chemical incompatibility was considered to be a loss of the small-molecule content of ~10% or more over the defined testing period)	–
Insulin	physical compatibility was established	Yes	Yes (Chemical incompatibility was considered to be a loss of the small-molecule content of ~10% or more over the defined testing period)	–
rhIGF-1/rhIGFBP-3 drug product: recombinant human protein complex of insulin-like growth factor-1 (IGF-1) and insulin-like growth factor binding protein-3 (IGFBP-3)	–	–	–	pH value of the unmixed product ([1]; not in the mixture): 5.5
